# According to publication PMC8434884 (Journal of medicinal chemistry, 2020):
# Experiments:
# [1] = biological target: T1, human 5-HT2CR (unedited INI isoform) (Homo sapiens, UniProt P28335); conditions: cited from earlier work
# T1 sequence (P28335 33-458): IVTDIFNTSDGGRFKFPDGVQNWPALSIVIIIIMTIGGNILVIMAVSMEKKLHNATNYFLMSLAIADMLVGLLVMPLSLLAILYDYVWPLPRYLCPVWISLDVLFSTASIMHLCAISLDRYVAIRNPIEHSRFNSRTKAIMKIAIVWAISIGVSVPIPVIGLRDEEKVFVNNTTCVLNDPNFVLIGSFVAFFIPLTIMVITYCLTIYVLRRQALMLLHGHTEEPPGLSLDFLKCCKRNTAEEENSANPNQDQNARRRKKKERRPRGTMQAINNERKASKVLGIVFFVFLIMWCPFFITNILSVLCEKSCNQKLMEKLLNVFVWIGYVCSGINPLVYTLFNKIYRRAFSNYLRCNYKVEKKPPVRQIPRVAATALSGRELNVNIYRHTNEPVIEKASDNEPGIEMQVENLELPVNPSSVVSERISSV
# [2] = biological target: T1, human 5-HT2CR (unedited INI isoform); conditions: 1 nM, 5-HT-induced Cai2+ release, h5-HT2CR-CHO cells
# [3] = test system: male Sprague–Dawley rats; assay: WAY163909 versus saline two-lever drug discrimination assay; format: in vivo, rat
# [4] = test system: male Sprague–Dawley rats; conditions: previous study; cited from earlier work
# [5] = biological target: D3 (Homo sapiens, UniProt P35462); conditions: 10 μM; cited from earlier work
# Sequence of D3 (P35462 whole entry): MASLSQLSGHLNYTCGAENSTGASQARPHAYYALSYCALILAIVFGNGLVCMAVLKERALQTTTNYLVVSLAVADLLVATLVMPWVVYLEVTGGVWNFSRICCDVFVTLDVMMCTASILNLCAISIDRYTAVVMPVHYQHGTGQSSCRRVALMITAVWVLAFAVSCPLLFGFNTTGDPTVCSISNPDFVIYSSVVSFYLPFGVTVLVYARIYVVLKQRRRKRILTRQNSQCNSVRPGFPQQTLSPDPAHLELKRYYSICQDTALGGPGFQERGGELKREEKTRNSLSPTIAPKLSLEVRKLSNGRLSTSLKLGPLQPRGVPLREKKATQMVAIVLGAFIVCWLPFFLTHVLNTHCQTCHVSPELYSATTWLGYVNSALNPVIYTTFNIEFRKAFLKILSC
# [6] = biological target: DAT (Homo sapiens, UniProt Q01959); conditions: 10 μM; cited from earlier work
# Sequence of DAT (Q01959 whole entry): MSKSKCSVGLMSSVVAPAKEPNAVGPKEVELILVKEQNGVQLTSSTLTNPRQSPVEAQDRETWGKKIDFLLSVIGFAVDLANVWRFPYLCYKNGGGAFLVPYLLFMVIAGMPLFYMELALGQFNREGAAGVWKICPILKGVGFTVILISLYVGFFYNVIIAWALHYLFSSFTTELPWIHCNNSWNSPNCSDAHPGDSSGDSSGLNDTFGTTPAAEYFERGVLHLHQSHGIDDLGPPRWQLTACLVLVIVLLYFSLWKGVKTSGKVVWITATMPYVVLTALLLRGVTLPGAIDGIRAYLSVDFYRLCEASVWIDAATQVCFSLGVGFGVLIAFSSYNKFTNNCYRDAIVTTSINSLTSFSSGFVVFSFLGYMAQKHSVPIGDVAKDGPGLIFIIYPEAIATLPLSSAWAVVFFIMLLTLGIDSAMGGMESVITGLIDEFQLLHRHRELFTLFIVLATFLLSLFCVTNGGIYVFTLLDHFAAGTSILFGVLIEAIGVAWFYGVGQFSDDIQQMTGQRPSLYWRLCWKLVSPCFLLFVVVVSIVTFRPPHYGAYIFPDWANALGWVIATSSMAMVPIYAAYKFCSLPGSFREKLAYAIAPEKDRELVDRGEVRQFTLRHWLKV
# [7] = biological target: T2, α 2A (Homo sapiens, UniProt P08913); conditions: 10 μM; cited from earlier work
# T2 sequence (P08913 1-465): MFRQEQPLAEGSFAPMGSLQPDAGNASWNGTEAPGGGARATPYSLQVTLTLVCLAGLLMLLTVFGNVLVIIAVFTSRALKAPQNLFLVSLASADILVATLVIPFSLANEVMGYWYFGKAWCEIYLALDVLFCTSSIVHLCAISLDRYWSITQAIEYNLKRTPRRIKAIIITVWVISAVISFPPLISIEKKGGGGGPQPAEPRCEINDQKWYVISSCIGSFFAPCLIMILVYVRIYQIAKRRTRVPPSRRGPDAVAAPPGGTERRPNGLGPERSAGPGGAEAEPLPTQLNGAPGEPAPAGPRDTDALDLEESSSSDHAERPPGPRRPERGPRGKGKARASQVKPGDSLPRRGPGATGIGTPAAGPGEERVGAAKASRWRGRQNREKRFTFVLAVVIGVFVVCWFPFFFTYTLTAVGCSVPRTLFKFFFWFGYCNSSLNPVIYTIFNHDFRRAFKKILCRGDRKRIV
# [8] = biological target: T3, α 2B (Homo sapiens, UniProt P18089); conditions: 10 μM; cited from earlier work
# T3 sequence (P18089 1-450): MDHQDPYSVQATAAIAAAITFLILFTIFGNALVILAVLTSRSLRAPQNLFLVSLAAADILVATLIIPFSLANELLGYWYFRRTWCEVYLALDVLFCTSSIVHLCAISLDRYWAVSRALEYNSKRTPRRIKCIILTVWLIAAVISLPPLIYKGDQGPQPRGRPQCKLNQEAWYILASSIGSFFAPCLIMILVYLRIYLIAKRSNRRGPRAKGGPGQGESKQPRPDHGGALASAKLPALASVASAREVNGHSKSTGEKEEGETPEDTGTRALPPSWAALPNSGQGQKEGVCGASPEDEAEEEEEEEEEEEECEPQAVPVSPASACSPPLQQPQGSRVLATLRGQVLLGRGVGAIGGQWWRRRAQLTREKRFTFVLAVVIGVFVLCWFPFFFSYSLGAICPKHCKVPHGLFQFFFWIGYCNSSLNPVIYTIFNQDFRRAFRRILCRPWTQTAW
# [9] = test system: rats; conditions: cited from earlier work
# [10] = test system: rats; conditions: cited from earlier work; remark: listed apart in the source
smiles,measurement,setting,value
CCCCCCCCCCC[C@@H]1CCN[C@H](C(=O)N[C@@H]([C@H]2O[C@H](SC)[C@H](O)[C@@H](O)[C@H]2O)[C@H](C)Cl)C1.Cl [Compound 1],shift of the 5-HT-evoked Cai2+ response curve,[1]; titration studies,evoked a leftward shift
"O=C(NC(CO)CO)[C@@H]1C[C@H](c2ccccc2)CCN1 (racemic) [Compound 14, (2,4-cis)-N-(1,3-Dihydroxypropan-2-yl)-4-phenylpiperidine-2-carboxamide]",5-HT2CR positive allosteric modulator activity (in words),[2],did promote PAM activity
"O=C(NCCCN1CCOCC1)[C@@H]1C[C@H](CCC2CCCCC2)CCN1 (racemic) [Compound 35, (2,4-cis)-4-(2-Cyclohexylethyl)-N-(3-morpholinopropyl)-piperidine-2-carboxamide]",5-HT2CR positive allosteric modulator activity (in words),[2],did produce PAM effects
"c1cc2c3c(c1)[C@H]1CCC[C@H]1N3CCNC2 [WAY163909, (7b-R,10a-R)-1,2,3,4,8,9,10,10a-octahydro-7bH-cyclopenta[b][1,4] diazepino[6,7,1hi]indole, reference compound]",percentage of rats selecting the WAY163909-associated lever,"[3]; WAY163909 0.125 mg/kg ip, substitution test, n = 13",0%
same,dose predicted to result in 50% drug-associated responses (ED50),[4],0.53 mg/kg
"O=C(NCCN1CCOCC1)[C@@H]1C[C@H](c2ccccc2)CCN1 (racemic) [Compound 16, (2,4-cis)-N-(2-Morpholinoethyl)-4-phenylpiperidine-2-carboxamide]",5-HT2CR positive allosteric modulator activity (in words),[2],did not result in positive allosteric effects
"O=C(NC(CO)CO)[C@@H]1C[C@H](C2CCCCC2)CCN1 (racemic) [Compound 15, (2,4-cis)-4-Cyclohexyl-N-(1,3-dihydroxypropan-2-yl)piperidine-2-carboxamide]",5-HT2CR positive allosteric modulator activity (in words),[2],did not result in positive allosteric effects
CCCCCCCCCCC[C@@H]1CCN[C@H](C(=O)NCC(O)CO)C1 (stereo partly drawn) [Compound 3],Emax RFU (% 5-HT),"[1]; compound 1 nM, 5-HT-induced Cai2+ release, h5-HT2CR-CHO cells",123.2 ± 4.1 % 5-HT
same,effect on Cai2+ release in the absence of 5-HT,[1]; h5-HT2CR-CHO cells,no effect on Cai^2+ release
same,inhibition of radioligand binding,[5],71.7%
same,inhibition of radioligand binding,[6],66.3%
same,inhibition of radioligand binding,[7],85.1%
same,inhibition of radioligand binding,[8],80.7%
same,effect on locomotor activity,[9],decrease locomotor activity
same,effect on cocaine-seeking during abstinence from cocaine self-administration,[10],suppress cocaine-seeking
"Cc1cc2c(cc1Cl)N(C(=O)Nc1ccc(Oc3cccnc3C)nc1)CC2.Cl.Cl [SB242084, 6-chloro-5-methyl-1-[[2-(2-methylpyrid-3-yloxy)pyrid-5-yl]carbamoyl]indoline dihydrochloride, reference compound]",blockade of substitution of 12 (2 mg/kg) plus WAY163909 (0.5 mg/kg),"[3]; SB242084 0.5 mg/kg pretreatment, 13/13 rats",completely prevented the substitution
"O=C(NCCN1CCOCC1)[C@@H]1C[C@H](CCc2ccccc2)CCN1 (racemic) [Compound 36, (2,4-cis)-N-(2-Morpholinoethyl)-4-phenethylpiperidine-2-carboxamide]",5-HT2CR positive allosteric modulator activity (in words),[2],did not produce PAM effects
"O=C(NCCCN1CCOCC1)[C@@H]1C[C@H](CCc2ccccc2)CCN1 (racemic) [Compound 37, (2,4-cis)-N-(3-Morpholinopropyl)-4-phenethylpiperidine-2-carboxamide]",5-HT2CR positive allosteric modulator activity (in words),[2],did produce PAM effects
"O=C(NC(CO)C(O)c1ccccc1)C1C[C@@H](c2ccccc2)CCN1 (stereo in doubt) [Compound (2R,4S)-11, (2S,4S)-N-((1S,2S)-1,3-Dihydroxy-1-phenylpropan-2-yl)-4-phenylpiperidine-2-carboxamide]",5-HT2CR positive allosteric modulator activity (in words),[2],modest allosteric activity
"O=C(NCCN1CCOCC1)[C@@H]1C[C@H](C2CCCCC2)CCN1 (racemic) [Compound 17, (2,4-cis)-4-Cyclohexyl-N-(2-morpholinoethyl)piperidine-2-carboxamide]",5-HT2CR positive allosteric modulator activity (in words),[2],did not result in positive allosteric effects
"O=C(NCCN1CCOCC1)[C@@H]1C[C@H](CCC2CCCCC2)CCN1 (racemic) [Compound 34, (2,4-cis)-4-(2-Cyclohexylethyl)-N-(2-morpholinoethyl)piperidine-2-carboxamide]",5-HT2CR positive allosteric modulator activity (in words),[2],did not produce PAM effects
